Results filed as inconclusive are left out. Activity calls are given as the source filed them. How the calls were made is not given here.

A word on the IC50: it is the midpoint of a concentration-inhibition curve.

This assay concerns the target S. cerevisiae eIF2B mutant, luciferase reporter luminescence. Kind of assay: potency on yeast eIF2B luminescence signal – S. cerevisiae, mutant, wild-type, growth, dose response (AID 792).
Setting [1] is: measured here: mutant yeast growth.

In the case of `CN(Cc1c(F)cccc1Cl)c1ccc(S(=O)(=O)N2CCOCC2)cn1`, the IC50 was > 100 µM (inactive). The same molecule registered an IC50 under setting [1] of over 100 µM. Turning to `CNC(=O)CSc1nc(N)c2c3c(sc2n1)CCC3`, the IC50 is > 100 µM (inactive). The IC50 under setting [1] was over 100 µM.

With `O=C(c1ccccc1)N1CCN(C(=O)c2ccncc2)CC1`, the IC50 was > 100 µM (inactive). Moreover, the IC50 under setting [1] was over 100 µM.

Consider `COc1cccc(C(=O)Nc2cccc(C(=O)N3CCOCC3)c2)c1`, for which the IC50 was > 100 µM (inactive). Besides, under setting [1], the IC50 is over 100 µM. For the molecule `O=C(CCc1ccccc1)Nc1ccc(Cl)cn1`, the IC50 is > 100 µM (inactive). The same molecule showed an IC50 under setting [1] of over 100 µM. With `COC(=O)c1cc2occc2n1CC(=O)Nc1ccc(OC)c(OC)c1`, the IC50 is > 100 µM (inactive). Under setting [1], this molecule showed an IC50 of over 100 µM. For `O=c1c2ccccc2nc(CN2CCOCC2)n1-c1ccccc1F` the same measures were > 100 µM (inactive) and over 100 µM.

Take `O=C(Nc1nnc(COc2ccc(Cl)cc2)s1)c1cccs1`: the IC50 is > 100 µM (inactive). The same molecule showed an IC50 under setting [1] of over 100 µM. Consider `COc1ccccc1CNC(=O)CN(c1ccc(C)cc1)S(=O)(=O)c1c(C)nn(C)c1C`, for which the IC50 is > 100 µM (inactive). Under setting [1], this molecule came in with an IC50 of over 100 µM. As for `COc1ccc(S(=O)(=O)N2CCCCC2)cc1C(C)C`, the IC50 is > 100 µM (inactive). Under setting [1], this molecule displayed an IC50 of over 100 µM.

As for `CCOC(=O)N1CCN(c2cc(NCCC(=O)O)c3c4c(onc24)-c2ccccc2C3=O)CC1`, the IC50 is > 100 µM (inactive). Turning to `CCC(Sc1nc2sc(C(=O)OC)c(C)c2c(=O)n1N)C(=O)NCC1CCCO1` (stereo not drawn), the IC50 is > 100 µM (inactive). Besides, under setting [1], the IC50 was over 100 µM.

Values taken from PubChem BioAssay AID792 (PCMD, 2007).
